Results reported in patent US6461997B1, “Triazole sulfones having herbicidal activity” (Monsanto Technology LLC, priority 1999, dated 2002).

Legend:
[1] = test system: LAMPU (purple deadnettle); assay: Pre-emergence herbicidal activity, cool season; type: in vivo, Lamium purpureum; details: lowest tested rate with 80% or greater inhibition; rates 300, 100, 30, 10 g/ha; about 14 days
Summary of the method: (§1)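 GR80 values derive from percent inhibition relative to untreated plants, read roughly 14 days after sowing and pre-emergence soil-surface treatment (compound in 50:50 acetone/water; rates typically 10, 30, 100, 300 g/ha). Warm-season weeds grew at 30/21° C day/night, cool-season ones at 18/13° C; an asterisk marks activity without reaching 80% at the highest rate.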

[2] = test system: LOLMG (annual ryegrass); assay: Pre-emergence herbicidal activity, cool season; type: in vivo, Lolium multiflorum; details: GR80 = lowest tested rate (300, 100, 30, 10 g/ha) with 80% or greater inhibition; approx. 14 days after treating; 18/13° C.
Method: (§2) Tables 5 to 8 summarize results of tests conducted as described below to determine the pre-emergence herbicidal activity, in the form of a GR80 value, of illustrative compounds of this invention. […] Compounds of the invention were typically applied at rates of 300, 100, 30, and 10 g/ha. Where herbicidal activity was evident but 80% inhibition was not achieved at the highest rate tested, an asterisk (*) is shown in the following tables.
(§3) The pre-emergence tests were conducted by the following procedure. Topsoil was sieved to pass through a 1.27 cm screen. Fertilizer was added to the topsoil and the mixture was then sterilized by heating. The topsoil mixture was placed in a pot and compacted to a depth of 1.0 to 1.25 cm from the top of the pot. Seeds of each of several monocotyledonous and dicotyledonous annual plant species were placed on top of the soil. Additional soil was subsequently placed over the seeds to level-fill the pot. A known amount of each test compound dissolved or suspended in an appropriate organic solvent was diluted with a 50:50 mix of acetone and water and applied to the surface of the soil. After treatment the plants were placed in a greenhouse where they received 0.64 cm of overhead irrigation. All subsequent watering consisted of a light overhead mist and/or subirrigation as needed for germination and growth. Tables 5 and 6 below relate to warm season plant species which were placed after pre-emergence treatment in a greenhouse with a 30/21° C. day/night temperature regime. Tables 7 and 8 below relates to cool season plant species placed after pre-emergence treatment in a greenhouse or growth chamber with an 18/13° C. day/night temperature regime.
(§4) Approximately 14 days after planting and treating, the plants were observed and herbicidal efficacy recorded as percent inhibition by comparison with untreated plants.
(§5) The plant species usually regarded as weeds which were utilized in the tests are identified in the tables below according to the following legend, in which “d” indicates a dicotyledonous species and “m” a monocotyledonous species. All monocotyledonous species included in the tests herein are grasses.

[3] = test system: ALOMY (blackgrass); assay: Pre-emergence herbicidal activity, cool season; type: in vivo, Alopecurus myosuroides; details: GR80 = lowest tested rate (300, 100, 30, 10 g/ha) with 80% or greater inhibition; approx. 14 days after treating; 18/13° C.
Method: as §2, §3, §4, §5

[4] = test system: VERPE (creeping speedwell); assay: Pre-emergence herbicidal activity, cool season; type: in vivo, Veronica persicaria; details: lowest tested rate with 80% or greater inhibition; rates 300, 100, 30, 10 g/ha; about 14 days
Summary of the method: as §1

[5] = test system: STEME (common chickweed); assay: Pre-emergence herbicidal activity, cool season; type: in vivo, Stellaria media; details: lowest tested rate with 80% or greater inhibition; rates 300, 100, 30, 10 g/ha; about 14 days
Summary of the method: as §1

[6] = test system: CHEAL (common lambsquarters); assay: Pre-emergence herbicidal activity, warm season; type: in vivo, Chenopodium album; details: GR80 = lowest tested rate (300, 100, 30, 10 g/ha) with 80% or greater inhibition; approx. 14 days after treating; 30/21° C.
Method: as §2, §3, §4, §5

[7] = test system: SETVI (green foxtail); assay: Pre-emergence herbicidal activity, cool season; type: in vivo, Setaria viridis; details: GR80 = lowest tested rate (300, 100, 30, 10 g/ha) with 80% or greater inhibition; approx. 14 days after treating; 18/13° C.
Summary of the method: as §1

[8] = test system: AGSST (creeping bentgrass); assay: Pre-emergence herbicidal activity, cool season; type: in vivo, Agrostis stolonifera; details: GR80 = lowest tested rate (300, 100, 30, 10 g/ha) with 80% or greater inhibition; approx. 14 days after treating; 18/13° C.
Summary of the method: as §1

[9] = test system: GALAP (catchweed bedstraw); assay: Pre-emergence herbicidal activity, cool season; type: in vivo, Galium aparine; details: lowest tested rate with 80% or greater inhibition; rates 300, 100, 30, 10 g/ha; about 14 days
Summary of the method: as §1

[10] = test system: AMARE (redroot pigweed); assay: Pre-emergence herbicidal activity, warm season; type: in vivo, Amaranthus retroflexus; details: GR80 = lowest tested rate (300, 100, 30, 10 g/ha) with 80% or greater inhibition; approx. 14 days after treating; 30/21° C.
Method: as §2, §3, §4, §5

[11] = test system: POLCO (wild buckwheat); assay: Pre-emergence herbicidal activity, cool season; type: in vivo, Polygonum convolvulus; details: lowest tested rate with 80% or greater inhibition; rates 300, 100, 30, 10 g/ha; about 14 days
Summary of the method: (§6)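 Activity is expressed as the rate giving 80% inhibition, with 300, 100, 30 and 10 g/ha typically tested. An asterisk marks activity short of 80% at the top rate. Warm-season grasses were held at 30/21 °C; cool-season blackgrass and wild buckwheat at 18/13 °C; scoring at about 14 days.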

[12] = test system: SORVU (shattercane); assay: Pre-emergence herbicidal activity, warm season; type: in vivo, Sorghum vulgare; details: GR80 = lowest tested rate (300, 100, 30, 10 g/ha) with 80% or greater inhibition; approx. 14 days after treating; 30/21° C.
Method: as §2, §3, §4, §5

[13] = test system: SORHA (johnsongrass (seedling)); assay: Pre-emergence herbicidal activity, warm season; type: in vivo, Sorghum halepense; details: GR80 = lowest tested rate (300, 100, 30, 10 g/ha) with 80% or greater inhibition; approx. 14 days after treating; 30/21° C.
Method: as §2, §3, §4, §5

[14] = test system: CIRAR (canada thistle (seedling)); assay: Pre-emergence herbicidal activity, warm season; type: in vivo, Cirsium arvense; details: GR80 = lowest tested rate (300, 100, 30, 10 g/ha) with 80% or greater inhibition; approx. 14 days after treating; 30/21° C.
Method: as §2, §3, §4, §5

[15] = test system: PANMI (wild proso millet); assay: Pre-emergence herbicidal activity, warm season; type: in vivo, Panicum miliaceum; details: GR80 = lowest tested rate (300, 100, 30, 10 g/ha) with 80% or greater inhibition; approx. 14 days after treating; 30/21° C.
Summary of the method: as §6

[16] = test system: SINAR (wild mustard); assay: Pre-emergence herbicidal activity, cool season; type: in vivo, Sinapis arvensis; details: lowest tested rate with 80% or greater inhibition; rates 300, 100, 30, 10 g/ha; about 14 days
Summary of the method: as §1

[17] = test system: ECHCG (barnyardgrass); assay: Pre-emergence herbicidal activity, warm season; type: in vivo, Echinochloa crus-galli; details: GR80 = lowest tested rate (300, 100, 30, 10 g/ha) with 80% or greater inhibition; approx. 14 days after treating; 30/21° C.
Summary of the method: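 Seeds sown in sterilised fertilised topsoil received surface-applied compound in 50:50 acetone/water, typically at 300, 100, 30 and 10 g/ha, then greenhouse-grown at 30/21° C (warm-season species) or 18/13° C (cool-season species). Percent inhibition versus untreated plants was scored at about 14 days, giving GR80; an asterisk marks activity short of 80% at the top rate.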

[18] = test system: SASKR (russian thistle); assay: Pre-emergence herbicidal activity, cool season; type: in vivo, Salsola kali; details: lowest tested rate with 80% or greater inhibition; rates 300, 100, 30, 10 g/ha; about 14 days
Summary of the method: as §1

[19] = test system: POROL (common purslane); assay: Pre-emergence herbicidal activity, warm season; type: in vivo, Portulaca oleracea; details: GR80 = lowest tested rate (300, 100, 30, 10 g/ha) with 80% or greater inhibition; approx. 14 days after treating; 30/21° C.
Method: as §2, §3, §4, §5

[20] = test system: DIGSA (large crabgrass); assay: Pre-emergence herbicidal activity, warm season; type: in vivo, Digitaria sanguinalis; details: GR80 = lowest tested rate (300, 100, 30, 10 g/ha) with 80% or greater inhibition; approx. 14 days after treating; 30/21° C.
Method: as §2, §3, §4, §5

[21] = test system: SETFA (giant foxtail); assay: Pre-emergence herbicidal activity, warm season; type: in vivo, Setaria faberi; details: GR80 = lowest tested rate (300, 100, 30, 10 g/ha) with 80% or greater inhibition; approx. 14 days after treating; 30/21° C.
Method: as §2, §3, §4, §5

[22] = test system: SOLNI (black nightshade); assay: Pre-emergence herbicidal activity, warm season; type: in vivo, Solanum nigrum; details: GR80 = lowest tested rate (300, 100, 30, 10 g/ha) with 80% or greater inhibition; approx. 14 days after treating; 30/21° C.
Method: as §2, §3, §4, §5

[23] = test system: BRAPP (broadleaf signalgrass); assay: Pre-emergence herbicidal activity, warm season; type: in vivo, Brachiaria platyphylla; details: GR80 = lowest tested rate (300, 100, 30, 10 g/ha) with 80% or greater inhibition; approx. 14 days after treating; 30/21° C.
Method: as §2, §3, §4, §5

[24] = test system: ABUTH (velvetleaf); assay: Pre-emergence herbicidal activity, warm season; type: in vivo, Abutilon theophrasti; details: GR80 = lowest tested rate (300, 100, 30, 10 g/ha) with 80% or greater inhibition; approx. 14 days after treating; 30/21° C.
Method: as §2, §3, §4, §5

[25] = test system: DATST (jimsonweed); assay: Pre-emergence herbicidal activity, warm season; type: in vivo, Datura stramonium; details: GR80 = lowest tested rate (300, 100, 30, 10 g/ha) with 80% or greater inhibition; approx. 14 days after treating; 30/21° C.
Method: as §2, §3, §4, §5

Row | Compound | Pre-emergence activity GR80, LAMPU [1] | Pre-emergence activity (GR80) LOLMG [2] [g/ha] | Pre-emergence activity (GR80) ALOMY [3] [g/ha] | Pre-emergence activity GR80, VERPE [4] | Pre-emergence activity GR80, STEME [5] | Pre-emergence activity (GR80) CHEAL [6] [g/ha] | Pre-emergence activity (GR80) SETVI [7] [g/ha] | Pre-emergence activity (GR80) AGSST [8] [g/ha] | Pre-emergence activity GR80, GALAP [9] | Pre-emergence activity GR80, POLCO [11] | Pre-emergence activity (GR80) SORVU [12] [g/ha] | Pre-emergence activity (GR80) SORHA [13] [g/ha] | Pre-emergence activity (GR80) PANMI [15] [g/ha] | Pre-emergence activity GR80, SINAR [16] | Pre-emergence activity (GR80) ECHCG [17] [g/ha] | Pre-emergence activity GR80, SASKR [18] | Pre-emergence activity (GR80) POROL [19] [g/ha] | Pre-emergence activity (GR80) DIGSA [20] [g/ha] | Pre-emergence activity (GR80) SETFA [21] [g/ha] | Pre-emergence activity (GR80) SOLNI [22] [g/ha] | further results
1 | CN(C(=O)n1cnc(S(=O)(=O)C(F)F)n1)C1CCCCC1 [Example 32] | [empty] | 300 | 300 | 300 g/ha | 300 g/ha | 300 | 100 | 300 | 100 g/ha | [empty] | 300 | 30 | 300 | 100 g/ha | 300 | [empty] | 100 | 300 | 300 | 300 | Pre-emergence activity (GR80) AMARE [10]: 300 g/ha; Pre-emergence activity (GR80) CIRAR [14]: 300 g/ha
2 | CCSC(F)(F)S(=O)(=O)c1ncn(C(=O)N(C)C2CCCCC2)n1 [Example 55] | [empty] | – | – | [empty] | [empty] | 300 | 300 | 300 | [empty] | 300 g/ha | 300 | 300 | 100 | [empty] | 300 | [empty] | 300 | 300 | 300 | 300 | Pre-emergence activity (GR80) BRAPP [23]: 300 g/ha; Pre-emergence activity (GR80) ABUTH [24]: 300 g/ha
3 | CN(Cc1ccccc1)C(=O)n1cnc(S(=O)(=O)C(F)(F)Br)n1 [Example 44] | [empty] | – | – | 100 g/ha | [empty] | – | – | – | [empty] | [empty] | – | – | 300 | [empty] | – | [empty] | – | – | – | 30 | Pre-emergence activity (GR80) ABUTH [24]: 300 g/ha
4 | CCSC(F)(F)S(=O)(=O)c1ncn(C(=O)N(C)OC)n1 [Example 57] | [empty] | 30 | 300 | 10 g/ha | 30 g/ha | – | 300 | – | 300 g/ha | 100 g/ha | – | – | – | 30 g/ha | – | 30 g/ha | – | 300 | – | – | –
5 | CCSC(F)(F)S(=O)(=O)c1ncn(C(=O)N(C)Cc2ccccc2)n1 [Example 56] | [empty] | – | – | [empty] | [empty] | – | 100 | 100 | [empty] | [empty] | – | – | – | [empty] | – | [empty] | – | – | – | – | Pre-emergence activity (GR80) DATST [25]: 300 g/ha
